According to patent publication US20260124166A1, “COMPOSITIONS AND METHODS USING GLYCINE TO REDUCE BIOLOGICAL AGE OF AN ADULT ANIMAL” (Société des Produits Nestlé S.A., priority 2022, published 2026):

Columns and labels:
[1] = old mice (21 months), 1.6 g/kg food glycine in diet for 6 weeks, vs old control diet and young (4 months) mice
From the text: 28 wild-type C57BL/6J mice of 21-months old and 12 wild-type C57BL/6J mice of 4-months old were kept in a temperature-and humidity-controlled environment with a 12:12-h light-dark cycle. Mice had access to nesting and enrichment materials and were provided with ad libitum access to water and food.
(§1) Mice underwent to a dietary supplementation for 6 weeks. The young control group (n=12) and old control group (n=14) received a commercial standard powdered diet (Safe 150, Safe Diets), with 20% humidity. […] At the end of the treatment, mice were euthanized with isoflurane after 2-hours fasting. Muscle gastrocnemius has been dissected and samples were snap frozen in liquid nitrogen and stored at −80° C.
Tissue pieces were excised on dry ice with liquid nitrogen cooled scalpels and kept at −80° C. until extraction. For extraction, samples were homogenized in 300 μL −20 ° C. methanol/water (5:3), including a fully labelled 13C yeast biomass as internal standard, using 5 mm stainless steel beads in a tissue grinder (Qiagen TissueLyser II) for up to 3 min at 23 Hz. […] The protein pellets were quantified with a bicinchoninic acid assay for later normalization and the polar phases, containing the metabolites of interest, were dried overnight in a vacuum centrifuge at 4° C. and 5 mbar and stored at −80° C. until analysis. […]

[2] = old mice (21 months), 1.6 g/kg food glycine in diet for 6 weeks, compared to old mice with control diet
Method: All animal experiments were performed according to national Swiss and EU ethical guidelines and approved by the local animal experimentation committee under license VD3519. 28 wild-type C57BL/6J mice of 21-months old and 12 wild-type C57BL/6J mice of 4-months old were kept in a temperature-and humidity-controlled environment with a 12:12-h light-dark cycle. Mice had access to nesting and enrichment materials and were provided with ad libitum access to water and food.
as §1
DNA extraction was performed on 100 mg of muscle using QIAGEN DNeasy Blood and Tissue kit (Cat. No: 69506) and following manufacturer recommendations. DNA was quantified using the DropSense technology (Unchained Labs). […]
Raw data were sent to the Clock Foundation, who performed the analyses to calculate the biological age of the samples. […] Data were plotted and analysed using R. One-tailed parametric t statistics was performed to test the effect of the glycine supplementation compared to the control diet.

## NCC(=O)O [glycine]
[1]
  glycine levels in muscle: significantly restores them toward young levels
[2]
  biological age (DNA methylation, muscle specific clock): biological age decreases significantly
